Assay type in all cases: biochemical
Assay [1] concerns the target T1, monoacylglycerol lipase (MAGL) (Macaca fascicularis, UniProt A0A2K5V664).
T1 sequence (A0A2K5V664 1-352): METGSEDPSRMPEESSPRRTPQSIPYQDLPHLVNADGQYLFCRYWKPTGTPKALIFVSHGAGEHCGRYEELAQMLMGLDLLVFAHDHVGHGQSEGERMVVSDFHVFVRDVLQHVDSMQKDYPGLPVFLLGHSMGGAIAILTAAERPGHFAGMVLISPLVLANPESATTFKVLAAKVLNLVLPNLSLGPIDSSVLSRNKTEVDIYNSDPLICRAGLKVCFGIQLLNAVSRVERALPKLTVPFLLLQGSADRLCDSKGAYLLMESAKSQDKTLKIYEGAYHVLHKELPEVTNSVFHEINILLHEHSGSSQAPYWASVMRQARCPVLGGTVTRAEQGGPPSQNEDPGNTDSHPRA
Nature of the assay: enzymatic inhibition assay with cynomolgus monkey MAGL protein.

Assay [2] deals with T2, monoacylglycerol lipase (MAGL) (Homo sapiens, UniProt Q99685).
T2 construct: gene MGLL
T2 sequence (Q99685 1-303): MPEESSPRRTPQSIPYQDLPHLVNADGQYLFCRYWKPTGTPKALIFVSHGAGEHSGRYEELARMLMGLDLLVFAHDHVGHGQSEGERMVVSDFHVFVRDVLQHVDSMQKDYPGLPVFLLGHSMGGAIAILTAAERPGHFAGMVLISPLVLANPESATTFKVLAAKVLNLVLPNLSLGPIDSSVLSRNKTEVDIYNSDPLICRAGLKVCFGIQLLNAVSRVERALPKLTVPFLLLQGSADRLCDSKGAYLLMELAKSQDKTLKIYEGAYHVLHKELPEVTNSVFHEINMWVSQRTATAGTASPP
Nature of the assay: enzymatic inhibition assay with human MAGL protein.

Assay [3] addresses T3, monoacylglycerol lipase (MAGL) (Mus musculus, UniProt O35678).
T3 construct: gene Mgll
T3 sequence (O35678 1-303): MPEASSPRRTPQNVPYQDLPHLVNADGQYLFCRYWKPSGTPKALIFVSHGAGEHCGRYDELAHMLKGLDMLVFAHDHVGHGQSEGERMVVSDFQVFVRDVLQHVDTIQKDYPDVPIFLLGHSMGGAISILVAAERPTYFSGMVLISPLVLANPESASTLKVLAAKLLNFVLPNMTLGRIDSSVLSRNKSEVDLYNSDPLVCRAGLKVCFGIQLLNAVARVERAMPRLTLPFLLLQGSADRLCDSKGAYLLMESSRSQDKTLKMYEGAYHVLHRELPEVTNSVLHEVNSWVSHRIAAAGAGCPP
Nature of the assay: enzymatic inhibition assay with mouse MAGL protein; supported by autoradiography and PET in wild-type vs MAGL knockout mice.

Consider `Cc1cccc(-c2ccc(N3C[C@H](N4CCN(C(=O)c5ccco5)CC4)CC3=O)cc2)c1` [(R)-YH168], for which the IC50 came to 2.7 nM in assay [1], 4 nM in assay [2] and 3.8 nM in assay [3].

Broadly, the IC50 is the concentration that gives 50% inhibition.

Values taken from paper PMC11839854, “Exploration of (R)-[^11C]YH168 as a PET tracer for imaging monoacylglycerol lipase in the brain: from mice to non-human primates” (European Journal of Nuclear Medicine and Molecular Imaging, 2024).
